{
  "source": "patent US6518260B1",
  "about": "“(α-aminophosphino) peptide derivatives, method for making same and therapeutic applications thereof” (Institut National de la Sante et de la Recherche Medicale …, priority 1996, dated 2003)",
  "data": [
    {"units": {"melting point": "°C"}, "values": [
      {"molecule": "NC(Cc1ccccc1)P(=O)(O)CC(Cc1ccccc1)C(=O)N[C@@H](Cc1ccccc1)C(=O)OCc1ccccc1.O=C(O)C(F)(F)F", "note": "(stereo partly shown)", "melting point": 210},
      {"molecule": "NC(Cc1ccccc1)P(=O)(CC(Cc1ccccc1)C(=O)N[C@@H](Cc1ccccc1)C(=O)OCc1ccccc1)OCc1ccccc1.O=CO", "note": "(stereo partly shown)", "melting point": 192},
      {"molecule": "CC(N)P(=O)(O)CC(Cc1ccc(-c2ccccc2)cc1)C(=O)N[C@@H](C)C(=O)OCc1ccccc1.O=C(O)C(F)(F)F", "note": "(stereo partly shown)", "melting point": 205},
      {"molecule": "Br.NC(Cc1ccccc1)P(=O)(O)CC(Cc1ccccc1)C(=O)N[C@H](CC(=O)O)Cc1ccccc1", "note": "(stereo partly shown)", "melting point": 240}
    ]}
  ]
}
